{
  "source": "patent US8546442B2",
  "about": "“Pyrazolopiperidine compounds as CCR1 receptor antagonists” (Boehringer Ingelheim International GmbH, priority 2010, dated 2013)",
  "key": {"CCR1 [1]": {"target": "T1, CCR1 (Homo sapiens, UniProt P32246)", "T1 sequence (P32246 1-355)": "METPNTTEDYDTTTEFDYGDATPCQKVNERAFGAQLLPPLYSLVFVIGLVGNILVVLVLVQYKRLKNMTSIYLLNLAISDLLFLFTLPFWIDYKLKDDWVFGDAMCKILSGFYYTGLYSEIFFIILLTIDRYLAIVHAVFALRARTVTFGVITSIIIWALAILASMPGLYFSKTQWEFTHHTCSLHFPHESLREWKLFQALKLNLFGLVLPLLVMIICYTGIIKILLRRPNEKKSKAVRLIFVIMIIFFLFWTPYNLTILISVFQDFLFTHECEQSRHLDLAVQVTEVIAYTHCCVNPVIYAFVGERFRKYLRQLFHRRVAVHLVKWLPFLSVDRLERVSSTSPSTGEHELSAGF", "test": "calcium flux in CCR1 transfected cells, Method A (Fluo-4 NW, FLIPR TETRA)", "assay_type": "cell-based", "settings": "cells stably expressing recombinant CCR1 and G-alpha-16, MIP-1 alpha at EC80", "protocol": "(§1) Compounds are assessed for the ability to block the interaction of CCR1 and MIP-1α in a functional cellular assay measuring calcium flux in CCR1 transfected cells.\nMethod A: Non-adherent cells purchased from Chemicon Corporation (HTS005C), stably expressing recombinant CCR1 and G-alpha-16 are grown in RPMI 1640 medium (Mediatech 10-080-CM) supplemented with 10% heat-inactivated FBS, 0.4 mg/mL Geneticin and penicillin/streptomycin. On the day of the assay, the cells are transferred to a beaker and dye-loaded in bulk using a Fluo-4 NW Calcium Assay Kit with probenecid (Invitrogen F36205) at 0.8E6 cells/mL for 1 hour at room temperature. After 1 hour, they are seeded in a 384-well tissue culture-treated plate at a density of 20,000 cells/well. Appropriately diluted test compound is added to the well to achieve a top concentration of 3,000 nM (diluted 4-fold with 10 doses total). The final concentration of DMSO is 1%. The buffer is HBSS (Invitrogen 14025) with 20 mM HEPES at pH 7.4. The cells are allowed to incubate 1 hour in the dark at room temperature. The plates are transferred to the FLIPR TETRA where MIP-1 alpha in 1% BSA is added at the EC80 final concentration. Wells+/−MIP-1 alpha containing diluted DMSO instead of compound serve as the controls. Intracellular calcium flux is recorded on the FLIPR TETRA, using excitation at 470/495 nm and emission at 515/575 nm. Data are analyzed using Activity Base software."}, "CCR1 [2]": {"target": "T1, CCR1", "test": "calcium flux in CCR1 transfected cells, Method B (Calcium 4 dye, HAMAMATSU FDSS6000)", "assay_type": "cell-based", "settings": "cells stably expressing recombinant CCR1 and G-alpha-16, MIP-1alpha at EC80", "protocol": "as §1\nMethod B: Non-adherent cells purchased from Chemicon Corporation (HTS005C), stably expressing recombinant CCR1 and G-alpha-16 are grown in RPMI 1640 medium (Mediatech 10-080-CM) supplemented with 10% FBS, 0.4 mg/mL Geneticin and penicillin/streptomycin. On the day of the assay, the cells are loaded with Calcium 4 dye (Molecular Devices R7448) with Probenecid (Invitrogen P346400) at 8E5 cells/mL for 1 hour at room temperature. After 1 hour, they are seeded in a 384-well tissue culture-treated plate at a density of 20,000 cells/well. Appropriately diluted test compound is added to the well to achieve a top concentration of 3,000 nM (diluted 4-fold with 10 doses total). The final concentration of DMSO is 1%. The buffer is HBSS (Invitrogen 14025) with 20 mM HEPES at pH 7.4. The cells incubate 30 minutes at 37 C and then 30 minutes at room temperature. The plates are transferred to the HAMAMATSU FDSS6000 where MIP-1alpha in 1% BSA is added at the EC80 final concentration. All plates must be read within 4 hours of the start of dye-loading. Wells+/−MIP-1alpha containing diluted DMSO instead of compound serve as the controls. Data are analyzed using Activity Base software."}},
  "note": "pIC50: −log10 of the molar value.",
  "data": [
    {"smiles": "CCC[C@H](NC(=O)N1c2cnn(-c3ccc(F)cc3)c2CCC1C(F)(F)F)c1ccnc(S(C)(=O)=O)c1", "note": "(single isomer, unassigned) [Example 56]", "values": [
      {"measurement": "pIC50", "setting": "CCR1 [1]", "value": 8.00},
      {"measurement": "pIC50", "setting": "CCR1 [2]", "value": 8.22}
    ]},
    {"smiles": "CNS(=O)(=O)c1ccc(CNC(=O)N2CCCc3c2cnn3-c2ccc(F)cc2)cc1", "note": "[Example 22]", "values": [
      {"measurement": "pIC50", "setting": "CCR1 [1]", "value": 7.66},
      {"measurement": "pIC50", "setting": "CCR1 [2]", "value": 8.30}
    ]},
    {"smiles": "CS(=O)(=O)c1cccc(CNC(=O)N2CCCc3c2cnn3-c2ccc(F)cc2)c1", "note": "[Example 23]", "values": [
      {"measurement": "pIC50", "setting": "CCR1 [1]", "value": 7.51},
      {"measurement": "pIC50", "setting": "CCR1 [2]", "value": 7.66}
    ]},
    {"smiles": "CCCC(NC(=O)N1CCCc2c1cnn2-c1ccc(F)cc1)c1cncc(S(C)(=O)=O)c1", "note": "(stereo not shown) [Example 24]", "values": [
      {"measurement": "pIC50", "setting": "CCR1 [1]", "value": 9.22}
    ]},
    {"smiles": "CS(=O)(=O)c1ccc(CNC(=O)N2CCCc3c2cnn3-c2ccc(F)cc2)cc1", "note": "[Example 25]", "values": [
      {"measurement": "pIC50", "setting": "CCR1 [1]", "value": 7.29},
      {"measurement": "pIC50", "setting": "CCR1 [2]", "value": 7.19}
    ]},
    {"smiles": "COCCNS(=O)(=O)c1ccc(CNC(=O)N2CCCc3c2cnn3-c2ccc(F)cc2)cc1", "note": "[Example 26]", "values": [
      {"measurement": "pIC50", "setting": "CCR1 [1]", "value": 8.22},
      {"measurement": "pIC50", "setting": "CCR1 [2]", "value": 8.40}
    ]},
    {"smiles": "CN(C)S(=O)(=O)c1cccc(CNC(=O)N2CCCc3c2cnn3-c2ccc(F)cc2)c1", "note": "[Example 33]", "values": [
      {"measurement": "pIC50", "setting": "CCR1 [1]", "value": 7.72}
    ]},
    {"smiles": "C[C@H](CO)NS(=O)(=O)c1ccc(CNC(=O)N2CCCc3c2cnn3-c2ccc(F)cc2)cc1", "note": "[Example 34]", "values": [
      {"measurement": "pIC50", "setting": "CCR1 [1]", "value": 7.70}
    ]},
    {"smiles": "C[C@@H](CO)NS(=O)(=O)c1ccc(CNC(=O)N2CCCc3c2cnn3-c2ccc(F)cc2)cc1", "note": "[Example 35]", "values": [
      {"measurement": "pIC50", "setting": "CCR1 [1]", "value": 8.40}
    ]},
    {"smiles": "CCC[C@H](NC(=O)N1CCCc2c1c(C)nn2-c1ccc(F)cc1)c1cncc(S(C)(=O)=O)c1", "note": "[Example 99]", "values": [
      {"measurement": "pIC50", "setting": "CCR1 [2]", "value": 5.82}
    ]},
    {"smiles": "CCC[C@H](NC(=O)N1CC(C)Cc2c1cnn2-c1ccc(F)cc1)c1ccnc(S(C)(=O)=O)c1", "note": "(stereo partly shown) [Example 102]", "values": [
      {"measurement": "pIC50", "setting": "CCR1 [2]", "value": 9.22}
    ]},
    {"smiles": "CCC[C@H](NC(=O)N1CC(C)(C)Cc2c1cnn2-c1ccc(F)cc1)c1ccnc(S(C)(=O)=O)c1", "note": "[Example 103]", "values": [
      {"measurement": "pIC50", "setting": "CCR1 [2]", "value": 9.15}
    ]},
    {"smiles": "CCC[C@H](NC(=O)N1c2cnn(-c3ccc(F)cc3)c2CCC1C(F)(F)F)c1ccc(Br)c(OC)c1", "note": "(stereo partly shown) [Example 104]", "values": [
      {"measurement": "pIC50", "setting": "CCR1 [2]", "value": 7.24}
    ]},
    {"smiles": "CCC[C@H](NC(=O)N1c2cnn(-c3ccc(F)cc3)c2CCC1C(F)(F)F)c1ccc(S(C)(=O)=O)c(OC)c1", "note": "(stereo partly shown) [Example 105]", "values": [
      {"measurement": "pIC50", "setting": "CCR1 [2]", "value": 8.30}
    ]},
    {"smiles": "CCC[C@H](NC(=O)N1c2cnn(-c3ccc(F)cc3)c2CCC1C(F)(F)F)c1ccc(S(C)(=O)=O)c(O)c1", "note": "(stereo partly shown) [Example 106]", "values": [
      {"measurement": "pIC50", "setting": "CCR1 [2]", "value": 7.96}
    ]},
    {"smiles": "CCC[C@H](NC(=O)N1c2cnn(-c3ccc(F)cc3)c2CCC1C)c1cccc(S(C)(=O)=O)n1", "note": "(stereo partly shown) [Example 107]", "values": [
      {"measurement": "pIC50", "setting": "CCR1 [2]", "value": 8.10}
    ]},
    {"smiles": "CCC[C@H](NC(=O)N1c2cnn(-c3ccc(F)cc3)c2CC1C)c1ccnc(S(C)(=O)=O)c1", "note": "(stereo partly drawn) [Example 108, 1-(4-Fluorophenyl)-5-methyl-5,6-dihydro-1H-pyrrolo[3,2-c]pyrazole-4-carboxylic acid [(S)-1-(2-methanesulfonyl-pyridin-4-yl)-butyl]-amide]", "values": [
      {"measurement": "pIC50", "setting": "CCR1 [2]", "value": 8.05}
    ]},
    {"smiles": "CC[C@H](NC(=O)N1c2cnn(-c3ccc(F)cc3)c2CC1C)c1cccc(S(C)(=O)=O)c1", "note": "(stereo partly shown) [Example 109]", "values": [
      {"measurement": "pIC50", "setting": "CCR1 [2]", "value": 7.96}
    ]},
    {"smiles": "CCC[C@H](NC(=O)N1c2cnn(-c3ccc(F)cc3)c2CC[C@@H]1C)c1cncc(S(C)(=O)=O)c1", "note": "[Example 111]", "values": [
      {"measurement": "pIC50", "setting": "CCR1 [2]", "value": 7.66}
    ]},
    {"smiles": "CCC[C@H](NC(=O)N1CC(C(=O)OCC)Cc2c1cnn2-c1ccc(F)cc1)c1ccnc(S(C)(=O)=O)c1", "note": "(stereo partly drawn) [Example 114, 1-(4-Fluorophenyl)-4-[(S)-1-(2-methanesulfonyl-pyridin-4-yl)-butylcarbamoyl]-4,5,6,7-tetrahydro-1H-pyrazolo[4,3-b]pyridine-6-carboxylic acid ethyl ester]", "values": [
      {"measurement": "pIC50", "setting": "CCR1 [2]", "value": 9.15}
    ]},
    {"smiles": "CCC[C@H](NC(=O)N1CC(C(=O)O)Cc2c1cnn2-c1ccc(F)cc1)c1ccnc(S(C)(=O)=O)c1", "note": "(stereo partly drawn) [Example 115, 1-(4-Fluorophenyl)-4-[(S)-1-(2-methanesulfonyl-pyridin-4-yl)-butylcarbamoyl]-4,5,6,7-tetrahydro-1H-pyrazolo[4,3-b]pyridine-6-carboxylic acid]", "values": [
      {"measurement": "pIC50", "setting": "CCR1 [2]", "value": 7.64}
    ]},
    {"smiles": "CCC[C@H](NC(=O)N1CC(C(=O)NC)Cc2c1cnn2-c1ccc(F)cc1)c1ccnc(S(C)(=O)=O)c1", "note": "(stereo partly shown) [Example 116]", "values": [
      {"measurement": "pIC50", "setting": "CCR1 [2]", "value": 9.00}
    ]},
    {"smiles": "CCC[C@H](NC(=O)N1CC(C(=O)NCCO)Cc2c1cnn2-c1ccc(F)cc1)c1ccnc(S(C)(=O)=O)c1", "note": "(stereo partly shown) [Example 117]", "values": [
      {"measurement": "pIC50", "setting": "CCR1 [2]", "value": 9.00}
    ]}
  ]
}
